Values quoted from earlier work, collected in patent US20230277510A1, “SIROLIMUS MICROSPHERES AND METHOD OF MAKING SIROLIMUS MICROSPHERES” (M.A. Med Alliance SA, priority 2022, published 2023).

Structure (SMILES): CO[C@H]1C[C@@H]2CC[C@@H](C)[C@@](O)(O2)C(=O)C(=O)N2CCCC[C@H]2C(=O)O[C@H]([C@H](C)C[C@@H]2CC[C@@H](O)[C@H](OC)C2)CC(=O)[C@H](C)/C=C(\C)[C@@H](O)[C@@H](OC)C(=O)[C@H](C)C[C@H](C)/C=C/C=C/C=C/1C [SRL, sirolimus]
- octanol/water partition coefficient (log P): 4.3
